Assay results published in ChEMBL document CHEMBL1128770, “Amino azoles and azolo-azines as potential hepatoprotectants: Part III” (1995).

Key:
Type in all cases: functional
Rattus norvegicus [1] = test: Hepatoprotective activity against thioacetamide(200 mg/kg, sc) induced toxicity in rat at 6 mg/kg dose(po x 7 days), expressed as %protection afforded in various levels of glutamate oxaloacetate transaminase (GOT)
Rattus norvegicus [2] = test: Hepatoprotective activity against thioacetamide (200 mg/kg, sc) induced toxicity in rat at 6 mg/kg dose (po x 7 days), expressed as %protection afforded in various levels of bilirubin
Rattus norvegicus [3] = test: Hepatoprotective activity against thioacetamide(200 mg/kg, sc) induced toxicity in rat at 6 mg/kg dose(po x 7 days), expressed as %protection afforded in various levels of glutamate pyruvate transaminase (GPT)
Rattus norvegicus [4] = test: Hepatoprotective activity against thioacetamide (200 mg/kg, sc) induced toxicity in rat at 6 mg/kg dose (po x 7 days), expressed as %protection afforded in various levels of alkaline phosphatase (ALP)

Compound	GOT Level (Rattus norvegicus [1]) [U l-1]	Bilurubin Level (Rattus norvegicus [2]) [mg %]	GPT Level (Rattus norvegicus [3]) [U l-1]	ALP Level (Rattus norvegicus [4]) [U l-1]
Nc1n[nH]c(N)c1Cc1ccc2c(c1)OCO2	75.6	0.758	99.2	196.9
Cc1ccc(-c2cc(Cc3nnc(N)s3)n(-c3ccccc3)n2)cc1	65.2	0.575	87.5	196
Nc1noc(N)c1Cc1ccc2c(c1)OCO2	101.5	0.69	109.3	205.8
CN(C)c1ccc(Cc2c(N)n[nH]c2N)cc1	67.1	0.568	93.8	187.1
Nc1noc(N)c1Cc1ccc(Cl)cc1	106	0.735	112.5	201
CC(=N)S [THIOACETAMIDE]	128	0.829	171.5	218.9
Nc1nc(N)nc(Cc2cc(-c3ccc(F)cc3)[nH]n2)n1	121.6	0.807	129	203.2
Nc1n[nH]c(N)c1Cc1ccc(Cl)cc1	97.5	0.757	136.2	205.3
COc1ccc(Cc2c(N)n[nH]c2N)cc1	70.4	0.619	85.5	187
CN(C)c1ccc(Cc2c(N)noc2N)cc1	114	0.786	146.2	206.6
SILYMARIN	84.5	0.617	110	199
COc1ccc(Cc2c(N)noc2N)cc1	99.9	0.745	87.4	215.9
CC(=O)Nc1[nH]nc(N)c1Cc1ccc(Cl)cc1	96.7	0.693	146	204
Nc1nc(N)nc(Cc2cc(-c3ccc(Cl)cc3)[nH]n2)n1	119	0.748	148.5	190.5
